Test [1] deals with T1, TRPV4 (Homo sapiens, UniProt Q9HBA0).
T1 construct: expressed in transfected cells
As to the kind of experiment: [Ca2+]i selectivity assay, CHO cells stably expressing hTRPV4, 4α-PDD activation. It is filed as cell-based. Conditions: 300 nM AM237; 5 μM 4α-PDD.

The target in test [2] is T2, TRPC4-SYFP2 (TRPC4:C4 channels) (Homo sapiens, UniProt Q9UBN4).
T2 construct: expressed in transfected cells
T2 sequence (Q9UBN4 1-893 isoform Q9UBN4-2): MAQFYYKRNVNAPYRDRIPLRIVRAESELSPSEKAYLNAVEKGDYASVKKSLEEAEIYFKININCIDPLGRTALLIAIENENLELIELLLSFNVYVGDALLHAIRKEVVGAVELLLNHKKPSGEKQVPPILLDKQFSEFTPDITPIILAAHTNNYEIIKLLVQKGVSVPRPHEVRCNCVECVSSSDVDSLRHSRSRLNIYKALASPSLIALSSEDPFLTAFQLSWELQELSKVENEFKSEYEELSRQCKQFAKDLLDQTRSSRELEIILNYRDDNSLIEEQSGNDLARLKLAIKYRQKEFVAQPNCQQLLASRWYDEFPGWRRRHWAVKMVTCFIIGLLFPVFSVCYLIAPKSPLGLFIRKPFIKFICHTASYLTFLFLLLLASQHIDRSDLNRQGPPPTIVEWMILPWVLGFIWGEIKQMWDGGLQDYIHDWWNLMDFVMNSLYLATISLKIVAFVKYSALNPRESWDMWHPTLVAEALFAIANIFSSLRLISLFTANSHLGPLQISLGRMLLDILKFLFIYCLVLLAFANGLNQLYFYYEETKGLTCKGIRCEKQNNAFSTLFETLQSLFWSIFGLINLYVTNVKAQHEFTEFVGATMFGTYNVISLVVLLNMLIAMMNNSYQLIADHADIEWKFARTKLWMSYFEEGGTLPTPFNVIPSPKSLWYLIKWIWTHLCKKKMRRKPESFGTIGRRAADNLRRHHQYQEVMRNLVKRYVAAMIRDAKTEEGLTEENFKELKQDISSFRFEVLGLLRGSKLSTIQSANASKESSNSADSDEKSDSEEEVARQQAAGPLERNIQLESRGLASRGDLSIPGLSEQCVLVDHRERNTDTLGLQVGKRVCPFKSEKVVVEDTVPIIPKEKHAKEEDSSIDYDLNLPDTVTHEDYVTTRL
As to the kind of experiment: [Ca2+]i measurement in (Tet+) HEK T-REx cells expressing hTRPC4-SYFP2. It is filed as cell-based. The text has this: To facilitate cloning of TRPC5‐SYFP2 and TRPC4‐SYFP2, a pcDNA™4/TO expression vector (ThermoFisher Scientific, Waltham, MA, USA), into which a four amino acid linker (ASAS) flanked by AgeI and SacII restriction sites had been introduced between EcoRI and XhoI restriction sites, was used (Naylor et al., 2016). Human TRPC4β was inserted between BamHI and AgeI restriction sites as described previously (Ludlow et al., 2017). Human TRPC5 (forward primer: 5′ GCTTGGTACCGCCACCATG 3′ and reverse primer: 5′ […] 3′) was inserted upstream of the linker between KpnI and AgeI restriction sites using hTRPC5/pcDNA™4/TO (Zeng et al., 2004) as a PCR template. Both constructs contained an N‐terminal Kozak sequence. SYFP2 was inserted downstream of the linker between SacII and XbaI restriction sites using pSYFP2‐C1 as a PCR template (forward primer, 5′ […] 3′; reverse primer, 5′ […] 3′). pSYFP2‐C1 was a gift from Dorus Gadella (Addgene plasmid #22878; http://n2t.net/addgene:22878; RRID:Addgene_22878; Kremers, Goedhart, van Munster, & Gadella, 2006). Plasmids were sequenced to verify identity.
HEK T‐REx™ cell line was transfected with TRPC5‐SYFP2 or TRPC4‐SYFP2 using FuGENE® HD transfection reagent. After 48 hr, cells were put under antibiotic selection using 400 μg·ml^−1 zeocin and 10 μg·ml^−1 blasticidin S (Invivogen, San Diego, California, USA). Medium changes were carried out regularly to remove dead cells. HEK T‐REx cells expressing tetracycline‐inducible human TRPC5, TRPC4–C1, and TRPC5–C1 were created as described previously (Akbulut et al., 2015; Ludlow et al., 2017; Rubaiy, Ludlow, Henrot, et al., 2017). TRPC5–C1 and TRPC4–C1 concatemers allow expression of functional channels with defined 2:2 stoichiometry that display ion permeability and current–voltage relationships distinct from those of homomeric TRPC4:C4 or TRPC5:C5 channels and consistent with those obtained upon co‐expression of TRPC1 with TRPC4 or TRPC5 (Ludlow et al., 2017; Rubaiy, Ludlow, Bon, & Beech, 2017; Rubaiy, Ludlow, Henrot, et al., 2017). […]

Molecules are shown by their SMILES.

T1 sequence (Q9HBA0 whole entry): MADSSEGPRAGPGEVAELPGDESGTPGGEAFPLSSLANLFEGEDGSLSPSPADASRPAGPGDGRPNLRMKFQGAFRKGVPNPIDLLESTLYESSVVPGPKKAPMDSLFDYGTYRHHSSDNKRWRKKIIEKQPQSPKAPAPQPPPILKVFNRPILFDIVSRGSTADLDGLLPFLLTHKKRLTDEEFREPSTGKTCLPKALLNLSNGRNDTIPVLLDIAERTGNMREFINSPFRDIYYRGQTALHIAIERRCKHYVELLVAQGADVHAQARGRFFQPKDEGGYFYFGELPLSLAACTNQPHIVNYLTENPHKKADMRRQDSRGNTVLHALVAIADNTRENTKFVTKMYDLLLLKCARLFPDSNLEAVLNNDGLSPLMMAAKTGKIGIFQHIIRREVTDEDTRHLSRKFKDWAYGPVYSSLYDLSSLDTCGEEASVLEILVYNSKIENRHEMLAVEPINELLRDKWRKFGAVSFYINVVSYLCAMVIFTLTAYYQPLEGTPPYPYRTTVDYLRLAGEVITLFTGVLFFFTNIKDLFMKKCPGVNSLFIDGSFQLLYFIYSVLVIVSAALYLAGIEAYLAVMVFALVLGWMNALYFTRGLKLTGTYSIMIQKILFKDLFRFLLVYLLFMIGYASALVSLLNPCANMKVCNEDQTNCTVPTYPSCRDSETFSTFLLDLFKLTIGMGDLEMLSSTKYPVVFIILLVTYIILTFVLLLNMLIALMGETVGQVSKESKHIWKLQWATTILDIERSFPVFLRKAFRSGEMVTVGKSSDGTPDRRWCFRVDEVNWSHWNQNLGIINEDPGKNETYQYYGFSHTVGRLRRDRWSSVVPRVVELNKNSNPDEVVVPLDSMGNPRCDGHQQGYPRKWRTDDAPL

`Cn1c(=O)n(CCCO)c(=O)c2c1nc(Oc1ccc(Cl)c(OC(F)(F)F)c1)n2Cc1ccc(Cl)cc1` [AM237]: the “Activation or inhibition of TRPV4” value in test [1] is on record as “no activation or inhibition”. In addition, the “Hill slope, inhibition of EA response” value in test [2] is −0.78. Further, the “Effect of pretreatment on basal [Ca2+]i” value in test [2] (0.3–300 nM AM237) is “did not affect”. For the same compound, the “Activation upon acute administration ([Ca2+]i)” value in test [2] (3-300 nM AM237) was “lack of activation”.

(Values after publication PMC6811774, “Potent, selective, and subunit‐dependent activation of TRPC5 channels by a xanthine derivative” (British Journal of Pharmacology, 2019).)
